Tests used:
[1] = Water absorption (hygroscopicity) test under 80% relative humidity; format: physicochemical; settings: room temperature, 37 days
[2] = Weight loss measured by TGA; format: physicochemical; settings: range of about 25° C. to about 200° C.
Protocol: Form Z has a weight loss of about 0.1% by weight at the range of about 25° C. to about 200° C., as measured by TGA.

[3] = cited from earlier work

CCCCCNC(=N)N/N=C/c1c[nH]c2ccc(OC)cc12.O=C(O)/C=C\C(=O)O [Form Z, tegaserod maleate]
hygroscopicity (water absorption) [1]: non hygroscopic
weight loss as measured by TGA [2]: about 0.1 % by weight

CCCCCNC(=N)N/N=C/c1c[nH]c2ccc(OC)cc12.O=C(O)/C=C\C(=O)O [Tegaserod maleate, 3-(5-methoxy-1H-indole-3-ylmethylene)-N-pentylcarbazimidamide hydrogen maleate]
solubility in ethanol ([3]; ethanol): slightly soluble
solubility in water ([3]; water): very slightly soluble

— US20070112057A1, “Polymorphic forms of tegaserod maleate” (priority 2005, published 2007)
